One may read the inhibition as how much of the control response was suppressed. What is called EC50 is the concentration needed to bring the measured effect to its halfway point.

Assay [1] relates to RKO-E6 cells. In words: Flow cytometry cell cycle distribution, RKO-E6. Type of assay: cell-based, human. As to conditions: 24 h, propidium iodide. The protocol: RKO, RKO-E6 or HeLa cells were seeded in 20-cm dishes in 10 ml of growth medium. Cells were allowed to adhere and then treated with the selected compounds for 24 h. The treated cells were collected, washed 2× with PBS and counted. The cell pellet was re-suspended in 500 μl of ice cold PBS and 2-5 ml of cold 70% ethanol (−20° C.) were added. Cells were fixed for 1 h or overnight. 5-10 million cells were placed into a 15-ml conical tube and centrifuged at 1000 g. Cells were washed 2× with 1% calf serum in PBS. Cells were resuspended in 800 μl of 1% calf serum in PBS and 100 μl of Rnase (1 mg/ml) and 100 μl of propidium iodide (400 μg/ml) added. Cells were incubated at 37° C. for 30 min and then analyzed on flow cytometer.

Assay [2] has as its system p53. In words: Western blot of p53 (p21, MDM2) levels. Type of assay: cell-based, human. As to conditions: RKO-E6 cells; in words. The protocol:
Protein content was quantified using a BioRad protein assay reagent (BioRad, cat #500-0006). Equal amounts of protein were resolved on SDS-polyacrylamide gels. Proteins were transferred onto a PVDF membrane, blocked with 5% milk, and incubated with the appropriate primary and secondary antibodies. […] To test for equivalent loading in each lane, blots were stripped, blocked and probed with an anti-eIF-4E antibody.
Background: Immunoblotting shows a protein as a band on a membrane.

In assay [3] the test system is RKO-E6 cells. In words: Alamar Blue viability assay, RKO-E6. It is filed as cell-based, human. Particulars: for inhibition at 0.5 µg/mL: Homo sapiens, RKOE6, 0.5 μg/ml alone, read-out: growth inhibition by drug alone. The protocol:
RKO colon carcinoma, human (ATCC, order # CRL-2577), RKO-E6 colon carcinoma transfected with HPV E6 inserted in pCMV.3 (ATCC, order # CRL-2578) were grown in MEM with 2 mM L-glutamine and Earle's BBS adjusted to contain 1.5 g/L NaHCO3, 0.1 mM non-essential amino acids and 1.0 mM sodium pyruvate, and supplemented with 10% fetal bovine serum, penicillin and streptomycin (pen/strep). Both cell lines were incubated at 37° C. in a humidified incubator containing 5% CO2.
The Alamar Blue assay incorporates a fluorimetric/colorimetric growth indicator that changes color in the response to chemical reduction by viable cells (Nociari 1998). Cells were seeded at a density of 3,000 cells (57 μl) per well in a 384-well black, clear-bottom plates using a syringe bulk dispenser (Zymark Sciclone ALH). Three microliters were removed from a compound daughter plate using a 384 fixed cannula head and added to the assay plate, making the final concentration 4 μg/ml. The plates were incubated for 24 h at 37° C. 10 μl of 40% Alamar Blue (Biosource Int., cat #DAL1100) solution in media was added to each well (1:10 dilution). The assay plates were incubated for 16h. Fluorescence intensity was determined using a Packard Fusion platereader with a 535 nm excitation filter and a 590 nm emission filter. The average fluorescence for the whole plate was used as a positive control. Average percentage inhibition for each well was determined using our freely available SLIMS software (Kelley et al., 2004).
The daughter plates for the 2-fold dilution series were prepared with a Zymark Sciclone ALH by diluting the replica daughter plates to obtain compound concentrations from 8 μg/ml-0.008 μg/ml (columns 8-18). Columns 1-7 were used as untreated control. RKO-E6 cells were seeded at the density of 3,000 per well in 55 μl, and 5 μl were added from the daughter plate. RKO cells were seeded at the density of 2,000 per well in 55 μl, and 5 μl were added from the daughter plate. The assay was incubated for 24 h at 37° C. 10% Alamar Blue was added to each well and the assay was incubated for 16 h (see above). Compounds for retesting were purchased from the manufacturers or from Sigma-Aldrich (see above). Stocks were prepared in DMSO at 4 mg/ml.
Each cell line (RKO, RKO-E6, HeLa and TC32) was treated with a dose combination matrix of doxorubicin and a selected hit compound. Each treatment was done in a triplicate in 384-well format. The average percent inhibition of cell proliferation, measured with Alamar Blue, was determined using the following formula: […]
(The colour change of resazurin is a common sign of viable cells or microbes.)

The test system of assay [4] is N548 mutant cells. The experiment in a line: cells. Particulars: for maximal fold induction: 72 h, read-out: N548 Mut: Max, maximum rescue expressed as fold over DMSO treated N548 mutant cells; for EC50: read-out: EC50 based on activity in N548 mutant cells; for selectivity profile of cell death rescue in panel of htt expressing cell lines: N63, N548, FL htt cell lines, in words. The protocol:
Embryonic rat striatal neurons were conditionally immortalized by stably transfecting a temperature-sensitive SV40 large T-antigen (T-ag) to generate the ST14A cell line. ST14A cells proliferate at the permissive temperature (33° C.), but stop dividing at 39° C., as a result of T-ag degradation. […] As htt protein context modulates polyQ toxicity, testing these different length htt proteins could provide insight into the basis for context dependence.
ST14A Assay System: Calcein acetoxylmethyl ester (AM) (Molecular Probes, Eugene, Oreg.) is a non-fluorescent, membrane-permeable compound that is cleaved by intracellular esterases, which subsequently forms the anionic, fluorescent compound, calcein, that cannot permeate the cell membrane. […] A fluorescence viability assay, that is based on conversion of a non-fluorescent substrate (calcein AM) to a fluorescent product by nonspecific esterases in live cells, was employed to monitor cell death in wild type (wt) ST14A-Htt and mut ST14A-Htt cell lines. Cell death is indicated by a decrease in fluorescence. […] 3 μl of each compound was transferred from daughter plates to triplicate assay plates for a final assay concentration of 4 μg/ml in 0.1% DMSO (10 μM for NINDS compounds). Cells were incubated at 33° C. for 3 h to enhance attachment and then shifted to 39° C. (with 5% CO2). After 3 days (d), cells were washed 10 times with phosphate buffered saline (PBS) leaving 20 μl residual PBS per well, and 20 μl of 2 μg/ml calcein AM (Molecular probes) in PBS was added per well. […] The fluorescence intensity in each well was normalized to the median of each plate. The median normalized fluorescence of each triplicate assay wells was determined. A well with more than 50% increase in intensity above the median signal intensity was considered a “hit.”
Assay Development: An assay was developed for detecting mutant htt-induced cell death in ST14A cells in a 384-well plate format. A calcein AM-based method was used to detect cell viability, and optimized the cell number and time course for this method. […] A cell number titration was performed to determine the cell density at which calcein fluorescence was not saturated and the coefficient of variation (CV) was low (FIG. 14A-B). A low CV is critical for a high-throughput assay as it decreases noise and enhances sensitivity. […] Next, the kinetics of the fluorescence signal were determined.
Next, the serum concentrations that induce cell death in these cells were determined. Cells were seeded in decreasing serum (IFS) concentrations (5 to 0%), and cell viability was assayed after 3 d using the calcein AM assay (FIG. 14E).
A Z′ value of greater than 0 is required for a usable assay, with a maximum value of 1.0 for an ideal assay. For the assay, calcein fluorescence was used on the day of seeding to represent 100% rescue. The difference in calcein fluorescence signal on the day of seeding and after different number of days under serum deprivation was determined and used to calculate the Z′ factor. […] About 47,000 compounds were assayed in a 384-well plate format in triplicate to enhance the reliability of the primary screen.

The test system of assay [5] is PC12 expressing Q103 exon 1 htt. In words: PC12 HD model, Alamar Blue viability. Type of assay: cell-based. Particulars: for EC50: Rattus norvegicus, PC-12, unit inferred; for PC12 rescue: percent increase in viability in compound treated cells above DMSO treated: — = no activity in the assay (footnote n.a.). The protocol: For enhanced stability the repeat portion consists of alternating CAG/CAA repeats. […] Mutant (mut) htt was induced by the ecdysone receptor agonist, tebufenozide.
For the PC12 assay, 7500 cells/well were plated in 384-well plates in 57 μl of PC12 medium with tebufenozide (1 μM). Compounds (3 μl) from daughter plates were added to the cells and incubated at 37° C. After 48 h, 20 μl of 40% Alamar Blue (Biosource, CA) in PC12 media was added per well and cells incubated for 12 h at 37° C. […] Fluorescence intensity was determined using a Packard Fusion plate reader with an excitation filter centered on 535 nm and an emission filter centered on 590 nm. Average percentage inhibition at each concentration was calculated.

Assay [6] relates to microtubules in N548 mutant cells. The experiment in a line: β-tubulin indirect immunofluorescence. Type of assay: cell-based, rat. Particulars: colchicine 400 nM, revertin-22 4 μg/ml, 8 h. The protocol: Cells were grown on glass coverslips in 10% IFS-containing media, treated with compounds and fixed in acetone/methanol (1:1 vol/vol). β-tubulin was detected using a mouse monoclonal antibody (clone TUB2.1, Sigma-Aldrich) followed by a rhodamine-conjugated goat anti-mouse antibody (Jackson Laboratory; Bar Harbor, Me.). Cells were viewed under a fluorescent microscope (ex 530/em 595 nm).

Values after ≈ are worked out from the molar mass of the structure shown.

In the case of `CC(C)(C)CC(C)(C)c1ccc(OCCOCC[N+](C)(C)Cc2ccccc2)cc1` [benzethonium chloride], the “cell cycle effect in RKO-E6 cells” value in assay [1] was “did not induce cell cycle arrest”. In addition, the “p53, p21, MDM2 levels” value in assay [2] is on record as “did not upregulate p53, p21, or caspase 3”.
Regarding `CC[C@@]1(O)C(=O)OCc2c1cc1n(c2=O)Cc2cc3ccccc3nc2-1` [camptothecin, S-(+)-camptothecin], the inhibition at 0.5 µg/mL in assay [3] (24 h) turned out to be 20%. The “p53, p21, MDM2 levels” value in assay [2] is recorded as “caused p53 to accumulate”.
`COc1cccc2c1C(=O)c1c(O)c3c(c(O)c1C2=O)C[C@@](O)(C(=O)CO)C[C@@H]3O[C@H]1C[C@H](N)[C@H](O)[C@H](C)O1` [doxorubicin]: the “resistance of RKO-E6 cells compared to RKO cells” value in assay [3] was “two-fold to four-fold more resistant”. Moreover, the inhibition at 0.5 µg/mL in assay [3] (24 h) came out at 20%. The “p53, p21, MDM2 levels” value in assay [2] is on record as “caused p53 to accumulate”.
With `NNc1nnc(-c2ccccc2)c2ccccc12` [revertin-7], in assay [4] (Rattus norvegicus), the maximal fold induction worked out at 2 and the half-maximal effective concentration (EC50) worked out at 1 µg/mL. Besides, in assay [5], a half-maximal effect (EC50) was put at 2 µg/mL (≈ 8.46 µM) and the “PC12 rescue: percent increase in viability in compound treated cells above DMSO treated” value (“PC12 rescue: percent increase” for short) is listed as 18%.
In the case of `CCCc1ccc(CC2=C(O)C(=O)c3ccccc3C2=O)cc1` [revertin-8], in assay [4] (Rattus norvegicus), the maximal fold induction came out at 3 and the EC50 came to 2 µg/mL. Besides, in assay [5], it took 2 µg/mL (≈ 6.53 µM) to reach a half-maximal effect (EC50) and the “PC12 rescue: percent increase” value is 15%.
Turning to `CCCCCCCCC(=O)N(Cc1ccco1)C(C)c1nc2ccccc2c(=O)n1-c1cc(C)ccc1C` (stereo not shown) [revertin-9], in assay [4] (Rattus norvegicus), the maximal fold induction worked out at 2 and the EC50 was determined as 1 µg/mL. Besides, in assay [5], a half-maximal effect (EC50) was put at 25 µg/mL (≈ 48.7 µM) and the “PC12 rescue: percent increase” value is recorded as 25%.
Turning to `CCCCc1ccc(C(=O)N(CCC(=O)N2CCC(Cc3ccccc3)CC2)Cc2ccco2)cc1` [revertin-11], in assay [4] (Rattus norvegicus), the maximal fold induction worked out at 2.5 and the EC50 turned out to be 2 µg/mL. Also, in assay [5], it took 30 µg/mL (≈ 61.6 µM) to reach a half-maximal effect (EC50) and the “PC12 rescue: percent increase” value came to 27%.
As to `COc1cc2c(cc1OC)C(C)N(C(=O)NCc1ccccc1)CC2` (stereo not shown) [revertin-22], in assay [4], the “selectivity profile of cell death rescue in panel of htt expressing cell lines” value is on record as “shared the selectivity profile with MTIs”. Also, in assay [4] (Rattus norvegicus), the maximal fold induction amounted to 2.5 and the EC50 worked out at 1 µg/mL. Further, in assay [6], the microtubule disruption result was “depolymerize microtubules”.
The corresponding values for `CC1CN(C(C)c2nc3ccccc3c(=O)n2-c2ccc(F)cc2)CCC1C(=O)C1CC1` (stereo not shown) [revertin-23] are “shared the selectivity profile with MTIs”, 2.5, 2 µg/mL and “disrupt microtubules”.
For Colchicine [reference compound], the “N548 Mut: Max, maximum rescue expressed as fold over DMSO treated N548 mutant cells” value in assay [4] (0.5% IFS, 39° C., 3 d) stood at 2.5 fold. Further, in assay [4], the “selectivity profile of cell death rescue in panel of htt expressing cell lines” value is “rescued cell death in three htt expressing cell lines” and the EC50 is 40 nM. In assay [6], the microtubule disruption result is “depolymerize microtubules”.
As to benzalkonium chloride, the “cell cycle effect in RKO-E6 cells” value in assay [1] is listed as “did not induce cell cycle arrest”. Further, in assay [3] (co-treatment with 0.5 μg/ml doxorubicin, 24 h, in words), the “effect on doxorubicin's lethality in RKO-E6 cells” value is on record as “selectively increased doxorubicin's lethality”. Also, in assay [3] (co-treatment with camptothecin, in words), the “effect on camptothecin's lethality” value is given as “did not synergize with camptothecin”. In addition, in assay [3] (in the absence of doxorubicin), the induction of apoptosis result is “did not induce apoptosis”. In assay [2], the “p53, p21, MDM2 levels” value was “did not upregulate p53, p21, or caspase 3”.
